{
  "source": "patent US20240226117A1",
  "about": "“TREATMENT OF CONGENITAL ADRENAL HYPOPLASIA” (ReveraGen BioPharma, Inc., priority 2021, published 2024)",
  "key": {"DMD participants [1]": {"system": "DMD participants", "assay": "VBP15-003/VBP15-LTE motor outcomes over 18 months (TTSTAND, TTRW, TTCLIMB, 6MWT, NSAA)", "assay_type": "in vivo, human", "conditions": "ANCOVA; for TTCLIMB velocity, LS mean difference (SE) / TTSTAND velocity, LS mean difference (SE): vamorolone 2.0 or 6.0 mg/kg/day 18 months versus corticosteroid-naïve DNHS", "procedure": "Three consecutive clinical trials of vamorolone treatment of DMD were conducted by CINRG (VBP15-002 [NCT02760264]: VBP15-003 [NCT02760277]: VBP15-LTE [NCT03038399]). A total of 48 participants (ages 4 to <7 years) were initially enrolled into VBP15-002, with trial participants completing month 12 of the 24-month VBP15-LTE study.\nThe consecutive vamorolone trials (VBP15-002, VBP15-003, VBP15-LTE) were open-label with no placebo comparator. Corticosteroid-naïve and corticosteroid-treated DMD participant comparators were group-matched participants from the CINRG DNHS (NCT00468832). The CINRG DNHS was an observational, prospective case-control study of 551 participants (440 with DMD, 111 healthy peers). For group matching between vamorolone-treated participants and CINRG DNHS participants, prespecified criteria were defined for matching within the interim statistical analysis plan (iSAP). Age-matched CINRG DNHS participants included those continuously corticosteroid-naïve over an 18-month period (n=19) or continuously corticosteroid-treated over an 18-month period (n=68). For the 68 corticosteroid-treated participants, as this was an observational cohort, corticosteroid doses and regimens varied based on clinician discretion. Although all 68 participants were treated for 18 months continuously, the age at initiation of corticosteroids varied. Thus, the total duration of corticosteroid treatment was longer than 18 months for most participants.\nAssessments of efficacy were motor outcomes (primary outcome: time to stand from supine [TTSTAND]: secondary outcomes: time to run/walk 10 meters [TTRW], time to climb four stairs [TTCLIMB], distance covered in 6-minute walk test [6MWT], and the North Star Ambulatory Assessment [NSAA]). 6MWT and NSAA were not assessed in most CINRG DNHS participants and were not compared to vamorolone-treated participants. According to standard operating procedures, clinical evaluators were trained to harmonize the CINRG vamorolone, CINRG DNHS, and CINRG prednisone studies. Reliability of these outcomes (percent coefficient of variation) has been reported for the VBP15-002/VBP15-003 studies. Assessments were done at baseline (VBP15-002 entry), 24 weeks (VBP15-003 last visit), and 18 months (VBP15-LTE midpoint assessment at 12 months).\nOnly participants completing VBP15-002 and VBP15-003 were eligible to enroll in VBP15-LTE. Participants received vamorolone at 1 of 4 dose levels (0.25, 0.75, 2.0, or 6.0 mg/kg/day) and at the same dose level in both the 4-week VBP15-002 trial and the 24-week VBP15-003 trial. If participants, their families, and their physicians wished to continue vamorolone treatment upon exiting the VBP15-003 trial, they were offered participation in the 24-month long-term extension (VBP15-LTE). The last visit of the VBP15-003 trial was commensurate with the first visit of the VBP15-LTE trial. In all studies, study medication was provided as 4% flavored liquid suspension and was dosed according to body weight and given once daily in the morning with food.\nVamorolone-treated participants were initially enrolled into VBP15-002 and VBP15-003 in 4 dose groups (0.25, 0.75, 2.0, and 6.0 mg/kg/day: groups A-D). Upon entering VBP15-LTE, vamorolone group A participants had 2 or 3 sequential dose escalations and were treated with 2.0 or 6.0 mg/kg/day for the last 3-9 months of the 18 months: group B participants had 1 or 2 dose escalations and were treated with 2.0 or 6.0 mg/kg/day for the last 9-11 months. Groups C and D were treated for 18 months at 2.0 or 6.0 mg/kg/day (S1 Fig).\nThe current study is the first to evaluate the longer-term tolerability, efficacy, and safety of vamorolone in DMD. […] Given the variable timing of dose escalations, it was prespecified that initial analyses of drug-related efficacy and safety would be limited to those participants who had 18 months of treatment with 2.0 mg/kg/day vamorolone or more (dose group C+dose group D: n=23). […]"}, "DMD participants [2]": {"system": "DMD participants", "assay": "Physician-reported adverse events in vamorolone trials and published corticosteroid studies", "assay_type": "in vivo, human", "procedure": "Study visits took place quarterly, including assessment of clinical laboratory results, vital signs, and AEs. All AEs were coded using the Medical Dictionary for Regulatory Activities (MedDRA version 19.0) system for reporting (preferred term and system organ class). Clinical efficacy assessments were performed at baseline of the VBP15-002 study, at six months (end of VBP15-003 study), and the 12-month midpoint visit of the VBP15-LTE study.\nTreatment-emergent AEs (TEAEs) have been published for the 2-week treatment MAD study (VBP15-002) and the 24-week dose-finding extension study (VBP15-003). TEAEs were reported with similar incidence by participants in all four vamorolone groups.\nA Data and Safety Monitoring Board report on the VBP15-LTE study covering all participants enrolled in the VBP15-LTE study (inclusive beyond the 12-month midpoint assessment) included three serious AEs (2 myoglobinuria events [in the same participant] and one pneumonia), all deemed unrelated to study drug. For all reported TEAEs, 402 were deemed unrelated to vamorolone, 37 were deemed remotely related, 29 were deemed possibly related, 11 were deemed probably related, and three were deemed definitely related. Of the 14 AEs probably and definitely related to vamorolone, 10 were weight gain, 2 were increased appetite, 1 was Cushingoid features, and 1 was irritability.\nThe incidences of physician-reported AEs typically for corticosteroid treatment were determined for participants that had been treated with vamorolone 6.0 mg/kg/day (for any duration), taken from the March 2019 Data Safety Update Report (DSUR) (pharmacovigilance report). Incidence rates of Cushingoid features, weight gain, hirsutism, and behavior change were studied (Table 8)."}, "[3]": {"conditions": "vamorolone 18 months versus corticosteroid-naïve participants"}, "[4]": {"conditions": "6.0 mg/kg/day vamorolone (any duration), n = 38, DSUR 13 Mar. 2019"}},
  "data": [
    {"smiles": "C[C@@H]1C[C@H]2[C@@H]3CCC4=CC(=O)C=C[C@]4(C)C3=CC[C@]2(C)[C@@]1(O)C(=O)CO", "note": "[Vamorolone, 17α,21-dihydroxy-16α-methylpregna-1,4,9(11)-triene-3,20-dione]", "values": [
      {"measurement": "TTCLIMB velocity, LS mean difference (SE)", "setting": "DMD participants [1]", "value": "0.059 (0.026) event/second"},
      {"measurement": "TTSTAND velocity, LS mean difference (SE)", "setting": "DMD participants [1]", "value": "0.042 (0.024) event/second"},
      {"measurement": "TTCLIMB velocity, LS mean difference (SE)", "setting": "DMD participants [1]; listed as vamorolone", "value": 0.059, "unit": "event/second"},
      {"measurement": "TTSTAND velocity, LS mean difference (SE)", "setting": "DMD participants [1]; listed as vamorolone", "value": 0.042, "unit": "event/second"},
      {"measurement": "TTCLIMB in seconds units, LS mean difference", "setting": "DMD participants [1]; [3]", "value": -0.34, "unit": "s"},
      {"measurement": "TTRW in seconds units, LS mean difference", "setting": "DMD participants [1]; [3]", "value": -0.84, "unit": "s"},
      {"measurement": "Incidence of physician-reported Cushingoid", "setting": "DMD participants [2]; [4]", "value": 2.6, "unit": "%"},
      {"measurement": "Incidence of physician-reported behavior change", "setting": "DMD participants [2]; [4]", "value": 0, "unit": "%^2"},
      {"measurement": "Incidence of physician-reported hypertrichosis/hirsutism", "setting": "DMD participants [2]; [4]", "value": 0, "unit": "%"},
      {"measurement": "Incidence of physician-reported weight gain", "setting": "DMD participants [2]; [4]", "value": 13.2, "unit": "%"},
      {"measurement": "Cushingoid features among the 14 AEs probably and definitely related", "setting": "DMD participants [2]; VBP15-LTE", "value": 1},
      {"measurement": "increased appetite among the 14 AEs probably and definitely related", "setting": "DMD participants [2]; VBP15-LTE", "value": 2},
      {"measurement": "irritability among the 14 AEs probably and definitely related", "setting": "DMD participants [2]; VBP15-LTE", "value": 1},
      {"measurement": "weight gain among the 14 AEs probably and definitely related", "setting": "DMD participants [2]; VBP15-LTE", "value": 10},
      {"measurement": "TEAEs deemed definitely related", "setting": "DMD participants [2]; VBP15-LTE, all reported TEAEs", "value": "three"},
      {"measurement": "TEAEs deemed possibly related", "setting": "DMD participants [2]; VBP15-LTE, all reported TEAEs", "value": 29},
      {"measurement": "TEAEs deemed probably related", "setting": "DMD participants [2]; VBP15-LTE, all reported TEAEs", "value": 11},
      {"measurement": "TEAEs deemed remotely related", "setting": "DMD participants [2]; VBP15-LTE, all reported TEAEs", "value": 37},
      {"measurement": "TEAEs deemed unrelated to vamorolone", "setting": "DMD participants [2]; VBP15-LTE, all reported TEAEs", "value": 402},
      {"measurement": "serious AEs in VBP15-LTE (Data and Safety Monitoring Board report)", "setting": "DMD participants [2]; all LTE participants, all deemed unrelated to study drug", "value": "three"},
      {"measurement": "safety and tolerability over the 24-week treatment period (VBP15-003)", "setting": "DMD participants [2]; oral, all doses tested (0.25, 0.75, 2.0, 6.0 mg/kg/day)", "value": "safe and well-tolerated"}
    ]}
  ]
}
